Molecular target: human PDE10A (Homo sapiens (Human), UniProt Q9Y233)
Experiment: human PDE10A full length Scintillation Proximity Assay (SPA)
Assay type: biochemical
Conditions: 50 nM cGMP and 50 nM [3H]-cGMP, 20 minutes at room temperature; read-out: PDE10A inhibition IC50
Protocol: The following test was carried out in order to determine the activity of the compounds of the present invention.
The human PDE10A full length assay was performed in 96-well micro titer plates. […] Non-specific activity was tested without the enzyme. The reaction was initiated by the addition of the substrate solution (cGMP and [^3H]-cGMP) and allowed to progress for 20 minutes at room temperature. The reaction was terminated by adding 25 μl of YSi-SPA scintillation beads (GE Healthcare, cat. # RPNQ0150) in 18 mM zinc sulphate solution (stop reagent). After 1 h under shaking, the plate was centrifuged one minute at 170 g to allow beads to settle. Afterwards, radioactive counts were measured on a Perkin Elmer TopCount Scintillation plate reader.

Sequence of human PDE10A (Q9Y233 other isoform, or with tags, fused parts or gaps): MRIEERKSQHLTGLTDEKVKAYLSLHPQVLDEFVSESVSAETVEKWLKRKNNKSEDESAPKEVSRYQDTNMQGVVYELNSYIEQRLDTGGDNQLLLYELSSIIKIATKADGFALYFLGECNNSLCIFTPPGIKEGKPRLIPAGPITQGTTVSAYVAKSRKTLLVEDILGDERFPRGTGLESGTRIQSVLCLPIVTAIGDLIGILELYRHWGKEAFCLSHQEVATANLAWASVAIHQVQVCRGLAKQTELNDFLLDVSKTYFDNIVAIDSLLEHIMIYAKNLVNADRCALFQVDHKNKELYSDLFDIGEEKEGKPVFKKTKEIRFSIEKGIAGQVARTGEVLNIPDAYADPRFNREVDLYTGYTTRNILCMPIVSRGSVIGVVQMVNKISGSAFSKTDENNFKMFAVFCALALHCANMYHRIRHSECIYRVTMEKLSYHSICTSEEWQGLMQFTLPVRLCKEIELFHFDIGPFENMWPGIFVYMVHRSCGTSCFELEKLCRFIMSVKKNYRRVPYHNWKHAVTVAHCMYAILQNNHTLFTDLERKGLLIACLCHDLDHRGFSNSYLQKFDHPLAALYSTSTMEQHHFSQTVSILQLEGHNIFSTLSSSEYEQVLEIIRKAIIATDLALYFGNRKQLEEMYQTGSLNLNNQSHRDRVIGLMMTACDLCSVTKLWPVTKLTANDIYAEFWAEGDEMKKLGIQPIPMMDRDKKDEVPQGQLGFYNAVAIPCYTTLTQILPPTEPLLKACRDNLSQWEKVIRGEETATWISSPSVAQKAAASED

Point of comparison: `CNC(=O)c1c(NC(=O)c2nc(N3CCC3)cnc2Nc2cncnc2)cnn1C` [Example 304, 6-Azetidin-1-yl-3-(pyrimidin-5-ylamino)-pyrazine-2-carboxylic acid (1-methyl-5-methylcarbamoyl-1H-pyrazol-4-yl)-amide], IC50 143 nM. Against it:
- CC(C)Cn1ncc(NC(=O)c2nc(C3CC3)cnc2Nc2cncnc2)c1C(=O)NCC(C)(C)O [Example 134, 6-Cyclopropyl-3-(pyrimidin-5-ylamino)-pyrazine-2-carboxylic acid [5-(2-hydroxy-2-methyl-propylcarbamoyl)-1-isobutyl-1H-pyrazol-4-yl]-amide] — 6.7-fold lower, 21.5 nM
- CCNC(=O)c1ncccc1NC(=O)c1nc(C2CC2)cnc1Nc1cncnc1 [Example 220, 6-Cyclopropyl-3-(pyrimidin-5-ylamino)-pyrazine-2-carboxylic acid (2-ethylcarbamoyl-pyridin-3-yl)-amide] — 62-fold lower, 2.3 nM
- CN(C(=O)c1nn(C)cc1NC(=O)c1nc(C2CC2)ccc1Nc1cncnc1)C1CC1 [Example 15, 6-Cyclopropyl-3-(pyrimidin-5-ylamino)-pyridine-2-carboxylic acid [3-(cyclopropyl-methyl-carbamoyl)-1-methyl-1H-pyrazol-4-yl]-amide] — 13-fold lower, 10.7 nM
- Cn1ncc(NC(=O)c2nc(C3CC3)c(C3CCCO3)nc2Nc2cncnc2)c1C(=O)NCCF (stereo not shown) [Example 162, 6-Cyclopropyl-3-(pyrimidin-5-ylamino)-5-(tetrahydro-furan-2-yl)-pyrazine-2-carboxylic acid [5-(2-fluoro-ethylcarbamoyl)-1-methyl-1H-pyrazol-4-yl]-amide] — within 1.5-fold, 124 nM
- Cn1ncc(NC(=O)c2nc(C3CC3)cnc2Nc2cncnc2)c1C(=O)N1CCOCC1 [Example 179, 6-Cyclopropyl-3-(pyrimidin-5-ylamino)-pyrazine-2-carboxylic acid [1-methyl-5-(morpholine-4-carbonyl)-1H-pyrazol-4-yl]-amide] — within 1.5-fold, 148 nM
- O=C(Nc1cnccc1C(=O)N1CCC(F)(F)C1)c1nc(C2CC2)ccc1Nc1cncnc1 [Example 56, 6-Cyclopropyl-3-(pyrimidin-5-ylamino)-pyridine-2-carboxylic acid [4-(3,3-difluoro-pyrrolidine-1-carbonyl)-pyridin-3-yl]-amide] — 2.2-fold lower, 65.7 nM
- CC1CCC(C)N1C(=O)c1nn(C)cc1NC(=O)c1nc(C2CC2)ccc1Nc1cncnc1 (stereo not shown) [Example 35, 6-Cyclopropyl-3-(pyrimidin-5-ylamino)-pyridine-2-carboxylic acid [3-(2,5-dimethyl-pyrrolidine-1-carbonyl)-1-methyl-1H-pyrazol-4-yl]-amide] — 3.1-fold lower, 45.7 nM
- Cn1ncc(NC(=O)c2nc(C3CC3)cnc2Nc2cncnc2)c1C(=O)NC(C)(C)CO [Example 152, 6-Cyclopropyl-3-(pyrimidin-5-ylamino)-pyrazine-2-carboxylic acid [5-(2-hydroxy-1,1-dimethyl-ethylcarbamoyl)-1-methyl-1H-pyrazol-4-yl]-amide] — 42-fold lower, 3.4 nM
- CC(C)(O)CNC(=O)c1ncncc1NC(=O)c1nc(C2CC2)cnc1Nc1cncnc1 [Example 97, 5-{[6-Cyclopropyl-3-(pyrimidin-5-ylamino)-pyrazine-2-carbonyl]-amino}-pyrimidine-4-carboxylic acid (2-hydroxy-2-methyl-propyl)-amide] — 130-fold lower, 1.1 nM
- Cn1cc(NC(=O)c2nc(C3CC3)ccc2Nc2cncnc2)c(C(=O)NC2CCCCC2)n1 [Example 28, 6-Cyclopropyl-3-(pyrimidin-5-ylamino)-pyridine-2-carboxylic acid (3-cyclohexylcarbamoyl-1-methyl-1H-pyrazol-4-yl)-amide] — 24-fold lower, 6 nM
- CCN(C)C(=O)c1ncncc1NC(=O)c1nc(C2CC2)cnc1Nc1cncnc1 [Example 204, 5-{[6-Cyclopropyl-3-(pyrimidin-5-ylamino)-pyrazine-2-carbonyl]-amino}-pyrimidine-4-carboxylic acid ethyl-methyl-amide] — 2.7-fold lower, 52.5 nM
- CC(C)(O)CNC(=O)c1cc(Cl)ncc1NC(=O)c1nc(C2CC2)cnc1Nc1cncnc1 [Example 260, 6-Cyclopropyl-3-(pyrimidin-5-ylamino)-pyrazine-2-carboxylic acid [6-chloro-4-(2-hydroxy-2-methyl-propylcarbamoyl)-pyridin-3-yl]-amide] — 89-fold lower, 1.6 nM
- Cc1ccc(NC(=O)c2nc(C3CC3)cnc2Nc2cncnc2)c(C(=O)NCC(C)(C)O)n1 [Example 183, 6-Cyclopropyl-3-(pyrimidin-5-ylamino)-pyrazine-2-carboxylic acid [2-(2-hydroxy-2-methyl-propylcarbamoyl)-6-methyl-pyridin-3-yl]-amide] — 480-fold lower, 0.3 nM
- CNC(=O)c1c(NC(=O)c2nc(N3CCCC3)cnc2Nc2cncnc2)cnn1C [Example 289, 3-(Pyrimidin-5-ylamino)-6-pyrrolidin-1-yl-pyrazine-2-carboxylic acid (1-methyl-5-methylcarbamoyl-1H-pyrazol-4-yl)-amide] — 6-fold lower, 24 nM
- O=C(Nc1sccc1C(=O)N1CCOCC1)c1nc(C2CC2)ccc1Nc1cncnc1 [Example 90, 6-Cyclopropyl-3-(pyrimidin-5-ylamino)-pyridine-2-carboxylic acid [3-(morpholine-4-carbonyl)-thiophen-2-yl]-amide] — 360-fold lower, 0.4 nM
- O=C(Nc1cncnc1C(=O)N1CCCC1)c1nc(C2CC2)cnc1Nc1cncnc1 [Example 219, 6-Cyclopropyl-3-(pyrimidin-5-ylamino)-pyrazine-2-carboxylic acid [4-(pyrrolidine-1-carbonyl)-pyrimidin-5-yl]-amide] — 2.7-fold lower, 52.3 nM
- CNC(=O)c1cc(C#N)ccc1NC(=O)c1nc(C2CC2)cnc1Nc1cncnc1 [Example 261, 6-Cyclopropyl-3-(pyrimidin-5-ylamino)-pyrazine-2-carboxylic acid (4-cyano-2-methylcarbamoyl-phenyl)-amide] — 41-fold lower, 3.5 nM
- CN(C)C(=O)c1cc(F)c(F)cc1NC(=O)c1nc(C2CC2)cnc1Nc1cncnc1 [Example 284, 6-Cyclopropyl-3-(pyrimidin-5-ylamino)-pyrazine-2-carboxylic acid (2-dimethylcarbamoyl-4,5-difluoro-phenyl)-amide] — 5.1-fold lower, 28 nM
- CCn1ncc(NC(=O)c2nc(C3CC3)cnc2Nc2cncnc2)c1C(=O)NCC(C)(C)O [Example 132, 6-Cyclopropyl-3-(pyrimidin-5-ylamino)-pyrazine-2-carboxylic acid [1-ethyl-5-(2-hydroxy-2-methyl-propylcarbamoyl)-1H-pyrazol-4-yl]-amide] — 8.5-fold lower, 16.9 nM
- CNC(=O)c1c(Cl)cccc1NC(=O)c1nc(C2CC2)cnc1Nc1cncnc1 [Example 196, 6-Cyclopropyl-3-(pyrimidin-5-ylamino)-pyrazine-2-carboxylic acid (3-chloro-2-methylcarbamoyl-phenyl)-amide] — 6.5-fold lower, 22 nM
- CN(CCO)C(=O)c1ccncc1NC(=O)c1nc(C2CC2)ccc1Nc1cncnc1 [Example 73, 6-Cyclopropyl-3-(pyrimidin-5-ylamino)-pyridine-2-carboxylic acid {4-[(2-hydroxy-ethyl)-methyl-carbamoyl]-pyridin-3-yl}-amide] — 7.6-fold lower, 18.9 nM
- CNC(=O)c1cc(Cl)ncc1NC(=O)c1nc(C2CC2)cnc1Nc1cncnc1 [Example 259, 6-Cyclopropyl-3-(pyrimidin-5-ylamino)-pyrazine-2-carboxylic acid (6-chloro-4-methylcarbamoyl-pyridin-3-yl)-amide] — 79-fold lower, 1.8 nM
- CN1CCCC(NC(=O)c2c(NC(=O)c3nc(C4CC4)cnc3Nc3cncnc3)cnn2C)C1 (stereo not shown) [Example 241, 6-Cyclopropyl-3-(pyrimidin-5-ylamino)-pyrazine-2-carboxylic acid [1-methyl-5-(1-methyl-piperidin-3-ylcarbamoyl)-1H-pyrazol-4-yl]-amide] — 5-fold lower, 28.6 nM
- O=C(Nc1cncnc1C(=O)N1CCC1)c1nc(C2CC2)cnc1Nc1cncnc1 [Example 211, 6-Cyclopropyl-3-(pyrimidin-5-ylamino)-pyrazine-2-carboxylic acid [4-(azetidine-1-carbonyl)-pyrimidin-5-yl]-amide] — 19-fold higher, 2650 nM
- CC(C)c1ncc(Nc2cncnc2)c(C(=O)Nc2cccnc2C(=O)NCC(C)(C)O)n1 [Example 329, 2-Isopropyl-5-(pyrimidin-5-ylamino)-pyrimidine-4-carboxylic acid [2-(2-hydroxy-2-methyl-propylcarbamoyl)-pyridin-3-yl]-amide] — 49-fold lower, 2.9 nM
- CCCN(C)C(=O)c1c(NC(=O)c2nc(C3CC3)cnc2Nc2cncnc2)cnn1C [Example 229, 6-Cyclopropyl-3-(pyrimidin-5-ylamino)-pyrazine-2-carboxylic acid [1-methyl-5-(methyl-propyl-carbamoyl)-1H-pyrazol-4-yl]-amide] — 11-fold lower, 12.6 nM
- CN(C)C(=O)c1c(F)cccc1NC(=O)c1nc(C2CC2)cnc1Nc1cncnc1 [Example 308, 6-Cyclopropyl-3-(pyrimidin-5-ylamino)-pyrazine-2-carboxylic acid (2-dimethylcarbamoyl-3-fluoro-phenyl)-amide] — 160-fold lower, 0.9 nM
- CC(C)(O)CNC(=O)c1c(NC(=O)c2nc(C3CC3)cnc2Nc2cncnc2)cnn1CCC(F)(F)F [Example 172, 6-Cyclopropyl-3-(pyrimidin-5-ylamino)-pyrazine-2-carboxylic acid [5-(2-hydroxy-2-methyl-propylcarbamoyl)-1-(3,3,3-trifluoro-propyl)-1H-pyrazol-4-yl]-amide] — 11-fold lower, 12.9 nM
- O=C(NC1CCCCC1)c1ccncc1NC(=O)c1nc(C2CC2)ccc1Nc1cncnc1 [Example 78, 6-Cyclopropyl-3-(pyrimidin-5-ylamino)-pyridine-2-carboxylic acid (4-cyclohexylcarbamoyl-pyridin-3-yl)-amide] — 72-fold lower, 2 nM
- CNC(=O)c1cc(OCC(C)(C)O)ccc1NC(=O)c1nc(C2CC2)cnc1Nc1cncnc1 [Example 338, 6-Cyclopropyl-3-(pyrimidin-5-ylamino)-pyrazine-2-carboxylic acid [4-(2-hydroxy-2-methyl-propoxy)-2-methylcarbamoyl-phenyl]-amide] — 68-fold lower, 2.1 nM
